Measurements published in patent publication US20260097051A1, “CANNA[…] A T[…] FOR COVID-19” (AUGUSTA UNIVERSITY RESEARCH INSTITUTE, INC., priority 2021, published 2026).
Entries after “also recorded” stand apart in the source; their conditions may differ.

Experiments:
[1] = tested on: monoacylglycerol lipase (MAGL); conditions: De Petrocellis et al., 2011; cited from earlier work
[2] = target: transient receptor potential (TRP) ankyrin 1-type (TRPA1) channels (Rattus norvegicus, UniProt Q6RI86); conditions: De Petrocellis et al., 2008; 2011; cited from earlier work
[3] = tested on: endocannabinoid cellular reuptake; conditions: Ligresti et al., 2006; cited from earlier work
[4] = tested on: Poly(I:C)-induced ARDS in C57BL/6 mice; assay: Poly(I:C)-induced ARDS mouse model, CBC treatment
Description: Animal model and application of Poly(I:C) and CBC: Wild-type (WT) C57BL/6 mice (male, 12 weeks old) were divided into 3 experimental groups of sham, control and treatment (n=5). […] All mice were anesthetized with isoflurane. Sham group received PBS while control and treatment groups were administered by Poly(I:C) (Sigma Aldrich, USA) (100 μg in 50 μl sterile PBS) intranasally (I/N) three once-daily doses. CBC (isolate THC free) was delivered intraperitoneally (5mg/kg), first dose two hours after the second Poly(I:C) treatment and every other day interval, total of 3 doses. Sham and control groups received PBS only. All mice were sacrificed at 8 days after the first Poly(I:C) application. Blood and lung tissues were harvested and subjected to the further analysis.
Measurement of vital signs: Vital signs including temperature, Blood O2 saturation were measured prior and post of any treatment. Central body temperature was measured rectally and blood oxygen saturation was determined using portable pulse oximetry through carotid arteries.
Histology and immunohistochemistry: Left lobes of lung tissue were fixed in 10% neutral buffered formalin. Samples were processed by routine methods, oriented so as to provide coronal sections and 5 micron mid-coronal sections cut and stained with hematoxylin & eosin, Trichrome for histology. As for inflammatory indices, immunohistochemistry was performed by incubating the samples with specific antibodies against murine IL-6 (Cat #554402, BD BioSciences Pharmingen) and Neutrophils (Cat #G102, Leinco Technologies). Preparations were counterstained with hematoxylin (catalog no. 7221; Richard-Allan Scientific, Kalamazoo, MI, USA) and mounted in Faramount (catalog no. S3025, DAKO), analyzed and imaged by brightfield microscopy.
Analytical Flow Cytometry: Single cell suspension was prepared from lung tissues. Briefly, tissue samples were sieved through a 100 μM cell strainer (BD Biosciences, San Diego, CA), followed by centrifugation (1,000 rpm, 10 min) to prepare single-cell suspensions. All cells were then stained with fluorescent antibodies to quantify neutrophils, macrophages, lymphocytes and cytokine expression. Briefly, all cells were stained with anti-Gr1 (Neutrophils), Anti-F4/80 (Macrophages), and anti-CD3/CD4/CD8 (Lymphocytes, all from Biolegend USA). Then cells were fixed and permeabilized and stained intracellularly for cytokines including IL-6, TNFα, IL-2, and IFNγ (Proinflammatory cytokines). All samples were run through a 4-Laser LSR II flow cytometer. Cells were gated based on forward and side scatter properties and on marker combinations to select cells of interest. All acquired flow cytometry data were analyzed using the FlowJo V10.
Statistical analysis: Graphs and summary statistics were also used to assess the results. All statistical tests were 2-sided. Except for where noted, all p-values presented are unadjusted for multiple comparisons.

[5] = tested on: Poly(I:C)-induced ARDS in C57BL/6 mice; assay: Poly(I:C)-induced ARDS mouse model, CBD treatment
Description: Animal model and application of Poly(I:C) and CBC: Adult (12 weeks) male C57B1/6 mice were block randomized into one of three experimental groups (n=10 mice/group) by a blinded investigator. Group I received intranasal, once daily administration of sterile saline for three consecutive days to serve as a control. Group II received intranasal, once daily administration of Poly I:C (100 μg in 50 μL in sterile saline) for three consecutive days to mimic ARDS. Group III received intranasal, once daily administration of Poly I:C (100 μg in 50 μL in sterile saline) for three consecutive days, with intraperitoneal administration of CBD (isolate CBD, THC-free, 5 mg/kg body weight, Canabidiol Ltd, Dublin, Ireland), first dose two hours after the second Poly(I:C) treatment and every other day for a total of 3 doses to the treatment group. Blood oxygen saturation was quantified via the carotid arteries using a portable pulse oximeter at study initiation (day 0) and once daily for the duration of the study. Mice were euthanized at study day nine. Blood and lung tissue were harvested and subjected to flow cytometry, immunofluorescence and histological analysis, as detailed above. All flow cytometry data were analysed using the FlowJo V10 software while immunofluorescence, and histological preparations were analysed and imaged by fluorescence and bright field microscopy. As for additional histological evaluation, Masson's Trichrome staining was used for the detection of collagen fibres in lung on formalin-fixed, paraffin-embedded sections. The collagen fibres stained in blue and the background is stained red. Sections were examined and analysed using bright field microscopy imaging.

[6] = blood, vs untreated counterparts, p<0.01
[7] = lung tissue, PIC+CBC vs sham or PIC
[8] = lung, vs untreated counterparts, p<0.01
[9] = lung tissue, CBD after Poly(I:C)
[10] = whole blood, CBD 5 mg/kg intraperitoneal, 3 doses, after Poly(I:C)

Chain of transient receptor potential (TRP) ankyrin 1-type (TRPA1) channels (Q6RI86 whole entry): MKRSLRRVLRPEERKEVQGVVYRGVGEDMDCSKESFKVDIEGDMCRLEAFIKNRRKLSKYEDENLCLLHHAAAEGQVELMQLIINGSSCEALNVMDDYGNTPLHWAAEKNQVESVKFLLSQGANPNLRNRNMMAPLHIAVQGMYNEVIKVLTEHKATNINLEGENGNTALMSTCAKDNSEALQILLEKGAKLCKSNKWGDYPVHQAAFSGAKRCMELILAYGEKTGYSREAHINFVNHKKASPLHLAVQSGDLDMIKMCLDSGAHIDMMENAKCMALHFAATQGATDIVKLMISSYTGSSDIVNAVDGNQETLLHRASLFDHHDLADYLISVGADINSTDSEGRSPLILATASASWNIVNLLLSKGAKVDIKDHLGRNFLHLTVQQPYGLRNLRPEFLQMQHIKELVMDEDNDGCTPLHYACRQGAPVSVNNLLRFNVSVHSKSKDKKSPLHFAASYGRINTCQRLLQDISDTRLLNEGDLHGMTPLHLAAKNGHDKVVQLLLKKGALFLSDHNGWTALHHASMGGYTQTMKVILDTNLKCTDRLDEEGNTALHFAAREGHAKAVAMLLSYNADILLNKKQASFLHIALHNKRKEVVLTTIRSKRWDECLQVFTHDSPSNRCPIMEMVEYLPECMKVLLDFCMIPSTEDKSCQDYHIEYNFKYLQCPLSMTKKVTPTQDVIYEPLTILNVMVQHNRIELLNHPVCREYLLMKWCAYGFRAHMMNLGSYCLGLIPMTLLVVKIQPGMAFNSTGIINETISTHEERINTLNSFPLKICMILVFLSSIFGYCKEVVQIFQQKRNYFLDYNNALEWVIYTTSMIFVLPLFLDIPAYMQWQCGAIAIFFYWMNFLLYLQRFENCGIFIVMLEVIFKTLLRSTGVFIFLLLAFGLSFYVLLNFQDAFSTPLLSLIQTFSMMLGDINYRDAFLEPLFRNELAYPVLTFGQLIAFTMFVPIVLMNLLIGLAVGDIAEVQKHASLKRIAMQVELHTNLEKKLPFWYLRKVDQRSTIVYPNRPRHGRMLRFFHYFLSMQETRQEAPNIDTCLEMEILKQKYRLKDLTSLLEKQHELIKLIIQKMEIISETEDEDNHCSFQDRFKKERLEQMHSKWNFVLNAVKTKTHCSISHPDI

SMILES | inhibition of monoacylglycerol lipase (MAGL) [1] | activation of TRPA1 channels [2] | inhibition of endocannabinoid cellular reuptake [3] | increase in blood oxygen saturation ([4]; Poly(I:C) mice, CBC treated vs untreated PIC) [%] | blood oxygen saturation after CBC treatment ([4]; Poly(I:C) mice, pulse oximetry, untreated PIC group 90%) [%] | IFNγ expression level in blood (flow cytometry) [4, 6] | IL-6 expression level in blood (flow cytometry) [4, 6] | IL-17 expression level in blood (flow cytometry) [4, 6] | lung histology (H&E, Masson's trichrome): structural damage, hypertrophy and fibrosis ([4]; lung tissue, PIC+CBC vs PIC) | TRPA1 expression in lung tissue (immunohistochemistry) [4, 7] | TRPV1 expression in lung tissue (immunohistochemistry) [4, 7] | IFNγ expression level in lung (flow cytometry) [4, 8] | IL-6 expression level in lung (flow cytometry) [4, 8] | IL-17 expression level in lung (flow cytometry) [4, 8] | apelin expression in lung tissue (immunofluorescence) [5, 9] | lung histology (Masson's trichrome): inflammatory infiltrate, fibrosis, hypertrophy, pulmonary oedema [5, 9] | apelin expression in blood (flow cytometry) [5, 10] | blood T cells (flow cytometry) [5, 10] | blood neutrophils (flow cytometry) [5, 10]
CCCCCc1cc(O)c2c(c1)OC(C)(CCC=C(C)C)C=C2 (stereo not shown) [CBC, cannabichromene] | weak inhibitor | potent activator | inhibitor of endocannabinoid cellular reuptake | 8 | 98 | curtailed the expression levels | curtailed the expression levels | curtailed the expression levels | reduced hypertrophy and fibrosis | increased the level of expression | increased the level of expression | curtailed the expression levels | curtailed the expression levels | curtailed the expression levels |  |  |  |  | 
C=C(C)[C@@H]1CCC(C)=C[C@H]1c1c(O)cc(CCCCC)cc1O [CBD, cannabidiol] |  |  |  |  |  |  |  |  |  |  |  |  |  |  | increased apelin expression towards control levels; also recorded: normalized the Apelin expression | completely or partially abolished; also recorded: improved the structure towards the normal architecture | enhanced expression of apelin; also recorded: normalized the expression level of apelin; also recorded: attenuated these effects | returned decreased T cells and increased neutrophils towards the normal level | returned decreased T cells and increased neutrophils towards the normal level
